{
  "source": "paper PMC7232172",
  "about": "“APETx-Like Peptides from the Sea Anemone Heteractis crispa, Diverse in Their Effect on ASIC1a and ASIC3 Ion Channels” (Toxins, 2020)",
  "key": {"rat ASIC3 channel": {"biological_target": "T1, rat ASIC3 channel (Rattus norvegicus, UniProt O35240)", "T1 construct": "expressed in transfected cells; host or cells: Xenopus laevis oocytes (cRNA injection)", "T1 sequence (O35240 1-533)": "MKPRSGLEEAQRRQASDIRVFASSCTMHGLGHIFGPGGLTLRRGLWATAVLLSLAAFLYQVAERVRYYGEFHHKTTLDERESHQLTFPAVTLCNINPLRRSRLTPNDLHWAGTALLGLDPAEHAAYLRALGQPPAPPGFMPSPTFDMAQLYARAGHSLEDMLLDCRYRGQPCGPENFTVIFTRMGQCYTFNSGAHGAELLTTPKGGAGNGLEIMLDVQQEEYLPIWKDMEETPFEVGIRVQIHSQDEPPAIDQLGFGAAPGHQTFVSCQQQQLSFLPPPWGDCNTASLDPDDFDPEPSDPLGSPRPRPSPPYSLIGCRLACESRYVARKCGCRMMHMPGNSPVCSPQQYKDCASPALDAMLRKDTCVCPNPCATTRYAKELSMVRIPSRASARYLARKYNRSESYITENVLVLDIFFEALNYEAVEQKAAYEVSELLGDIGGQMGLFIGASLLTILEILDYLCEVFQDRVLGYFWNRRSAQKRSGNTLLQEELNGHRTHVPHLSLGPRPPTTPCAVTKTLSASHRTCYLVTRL", "test": "Two-electrode voltage clamp, homomeric ASIC3 transient currents in Xenopus laevis oocytes", "assay_type": "cell-based", "details": "mean ± SD, 5 cells", "experimental": "(§1) The study of the pharmacological profile of the Hcr 1b-3 and Hcr 1b-4 peptides from H. crispa was carried out on two major ion channel subtypes, ASIC1a and ASIC3. Homomeric ASIC1a channels expressed in X. laevis oocytes were activated by a rapid pH drop from 7.8 to 5.5 in 15 s after peptide application. To analyze the effect of HcrTxs on the transient component of the ASIC3 current, the channels were activated by rapid extracellular acidification from pH 7.8 to 4.0, but effects on the sustained ASIC3 current were not studied. The inhibitory activity of three class 1b sea anemone toxins, APETx2, Hcr 1b-1, and Hcr 1b-2, towards ASICs was previously assayed in electrophysiological experiments (Table 2). In addition, we previously reported that the Hcr 1b-3 and Hcr 1b-4 peptides inhibited about 54% and 80% of the ASIC1a current, respectively.\nAnimal care and animal experiments were performed following the protocol approved by the Animal Care and Use Committee of the Shemyakin-Ovchinnikov Institute of Bioorganic Chemistry, Approval Code: 267/2018; Approval Date: 2 October 2018. RAS. Rat ASIC1a and ASIC3 channels were expressed in Xenopus laevis oocytes after injection of 2.5–10 ng of cRNA, as previously described. After injection oocytes were kept for 2–3 days at 19 °C and then up to 5 days at the temperature of 15–16 °C in sterile ND96 medium (96 mM NaCl, 2 mM KCl, 1.8 mM CaCl2, 1 mM MgCl2, 5 mM HEPES titrated to pH 7.4 with NaOH supplemented with 50 μg/mL of gentamycin). Two-electrode voltage clamp recordings were performed using GeneClamp 500 amplifier (Axon Instruments, Foster City, CA, USA). The data were filtered at 100 Hz and digitized at 1000 Hz by an AD converter L780 (LCard, Moscow, Russia) using in-house software. The solutions were applied to a cell chamber (volume 75 μL). The laminar flow of an external solution of ND96 (pH 7.8) was used at a rate of 1 mL/min. ASIC1a and ASIC3 were activated by a short pH drop from 7.8 to 5.5 or to 4.0 (10 mM MES or 10 mM acetic acid was used as the buffer solution, respectively) in supplementary 0.1% BSA solution. Peptides were applied for up to 15 s before the activation impulse. A value of currents inhibition was calculated as the ratio of the peak current amplitude when the peptide was applied to the average amplitude of the control peak currents before and after the peptide application and expressed as a percentage. To construct the concentration–response curves, a logistic equation was the following: y = ((1 – A)/(1 + ([C]/IC50) nH)) + A; where y is the relative value of current inhibition; C is the peptide concentration; IC50 is the half maximal inhibitory concentration; nH is the Hill coefficient; A is the response value at maximal inhibition (% of control). Calculations were carried out using software Origin 7.0. […]"}, "rat ASIC1a channel": {"biological_target": "T2, rat ASIC1a channel (Rattus norvegicus, UniProt P55926)", "T2 construct": "expressed in transfected cells; host or cells: Xenopus laevis oocytes (cRNA injection)", "T2 sequence (P55926 1-526)": "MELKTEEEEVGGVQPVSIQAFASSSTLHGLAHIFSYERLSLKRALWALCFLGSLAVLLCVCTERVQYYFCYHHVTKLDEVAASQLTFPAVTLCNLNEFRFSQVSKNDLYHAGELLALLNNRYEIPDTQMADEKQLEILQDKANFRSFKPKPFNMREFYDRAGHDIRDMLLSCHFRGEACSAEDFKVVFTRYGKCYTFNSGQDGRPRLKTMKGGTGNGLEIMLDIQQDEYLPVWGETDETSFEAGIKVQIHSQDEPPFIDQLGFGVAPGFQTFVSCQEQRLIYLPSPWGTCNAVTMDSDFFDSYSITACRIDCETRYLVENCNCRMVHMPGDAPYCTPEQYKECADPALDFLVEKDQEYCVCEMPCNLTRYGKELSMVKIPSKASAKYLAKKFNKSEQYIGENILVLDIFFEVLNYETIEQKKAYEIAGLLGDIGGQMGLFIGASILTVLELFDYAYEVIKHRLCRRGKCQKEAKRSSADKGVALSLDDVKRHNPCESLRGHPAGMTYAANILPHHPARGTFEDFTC", "test": "Two-electrode voltage clamp, homomeric ASIC1a currents in Xenopus laevis oocytes", "assay_type": "cell-based", "experimental": "as §1\nAnimal care and animal experiments were performed following the protocol approved by the Animal Care and Use Committee of the Shemyakin-Ovchinnikov Institute of Bioorganic Chemistry, Approval Code: 267/2018; Approval Date: 2 October 2018. RAS. Rat ASIC1a and ASIC3 channels were expressed in Xenopus laevis oocytes after injection of 2.5–10 ng of cRNA, as previously described. After injection oocytes were kept for 2–3 days at 19 °C and then up to 5 days at the temperature of 15–16 °C in sterile ND96 medium (96 mM NaCl, 2 mM KCl, 1.8 mM CaCl2, 1 mM MgCl2, 5 mM HEPES titrated to pH 7.4 with NaOH supplemented with 50 μg/mL of gentamycin). Two-electrode voltage clamp recordings were performed using GeneClamp 500 amplifier (Axon Instruments, Foster City, CA, USA). The data were filtered at 100 Hz and digitized at 1000 Hz by an AD converter L780 (LCard, Moscow, Russia) using in-house software. The solutions were applied to a cell chamber (volume 75 μL). The laminar flow of an external solution of ND96 (pH 7.8) was used at a rate of 1 mL/min. ASIC1a and ASIC3 were activated by a short pH drop from 7.8 to 5.5 or to 4.0 (10 mM MES or 10 mM acetic acid was used as the buffer solution, respectively) in supplementary 0.1% BSA solution. Peptides were applied for up to 15 s before the activation impulse. A value of currents inhibition was calculated as the ratio of the peak current amplitude when the peptide was applied to the average amplitude of the control peak currents before and after the peptide application and expressed as a percentage. To construct the concentration–response curves, a logistic equation was the following: y = ((1 – A)/(1 + ([C]/IC50) nH)) + A; where y is the relative value of current inhibition; C is the peptide concentration; IC50 is the half maximal inhibitory concentration; nH is the Hill coefficient; A is the response value at maximal inhibition (% of control). Calculations were carried out using software Origin 7.0. The data are presented as mean ± SD."}, "[1]": {"system": "models of cerebral ischemia, retinal stroke, optic nerve crush, and Parkinson’s disease", "details": "cited from earlier work", "source_text": "Animal toxins produced by spiders, snakes, and sea anemones are considered molecular instruments for the study of ASICs gating and promising drug precursors. […] Peptides from spiders and snakes inhibit mostly mammalian ASIC1a channels. Two of ASIC1a inhibitors from spiders, ..."}, "ASIC1b": {"system": "ASIC1b", "details": "cited from earlier work", "source_text": "It is noteworthy that to increase the current through the ASICs it takes an order of magnitude higher concentration of toxins than to inhibit it. […] No ASIC3 ..."}, "ASIC1a": {"system": "ASIC1a", "details": "desensitization: ref 21; closed state: ref 13, 20, 22; cited from earlier work", "source_text": "Animal toxins produced by spiders, snakes, and sea anemones are considered molecular instruments for the study of ASICs gating and promising drug precursors. […] Peptides from spiders and snakes inhibit mostly mammalian ASIC1a channels. […] Peptides Hcr 1b-3 and Hcr 1b-4, electrophysiologically examined in this study, are the closest homologues of Hcr 1b-1 and Hcr 1b-2 (78%–97% of identity) as well as APETx2 (46%–49% of identity) that are attributed to β-defensin-like peptides. […] (Table 2). Despite the absence of the crucial basic residue Arg17 [31] in the sequence ..."}},
  "note": "Bridges are numbered along the chain shown (N, C = ends). Where no end group is shown, it is not given here.",
  "data": [
    {"substance": "GTPCKCHGYIGVYWFMLAGCPDGYGYNLSCPYFLGICCVKK (disulfide 4-37, 6-30, 20-38) [Hcr 1b-3]", "values": [
      {"measurement": "IC50", "setting": "rat ASIC3 channel; X. laevis oocytes, pH drop 7.8 to 4.0 (legend of Figure 4: from 7.4), logistic fit, read-out: IC50, inhibition of transient rASIC3 current", "result": "17 ± 5.8", "unit": "µM"},
      {"measurement": "A (response value at maximal inhibition, % of control), rASIC3", "setting": "rat ASIC3 channel; fit parameter, pH drop to 4.0", "result": "26 ± 7", "unit": "%"},
      {"measurement": "inhibition at 120 µM", "setting": "rat ASIC1a channel; Hcr 1b-3 at 120 μM, Hcr 1b-4 from concentration–response relationship, read-out: maximal inhibition of ASIC1a current", "result": 70, "unit": "%"},
      {"measurement": "IC50", "setting": "rat ASIC1a channel; X. laevis oocytes, pH drop 7.8 to 5.5 (legend of Figure 4: from 7.4), peptide applied up to 15 s before, mean ± SD, 5 cells, logistic fit, read-out: IC50, inhibition of rASIC1a current", "result": "4.95 ± 0.19", "unit": "µM"},
      {"measurement": "A (response value at maximal inhibition, % of control), rASIC1a", "setting": "rat ASIC1a channel; fit parameter, pH drop to 5.5, mean ± SD, 5 cells", "result": "30.3 ± 0.7", "unit": "%"}
    ]},
    {"substance": "PcTx1: spider toxin from Psalmopoeus cambridgei (EDCIPKWKGCVNRHGDCCEGLECWKRRRSFEVCVPKTPKT; ends and bridges not checked; cysteine pairing not given here; UniProt P60514 1-40, looked up)", "values": [
      {"measurement": "neuroprotection", "setting": "[1]", "result": "effective neuroprotectors"},
      {"measurement": "effect on ASIC1b current", "setting": "ASIC1b", "result": "potentiate ASIC1b"},
      {"measurement": "effect on ASIC1a gating state", "setting": "ASIC1a", "result": "promote desensitization of ASIC1a"}
    ]},
    {"substance": "mambalgin-1: snake toxin from Dendroaspis polylepis (LKCYQHGKVVTCHRDMKFCYHNTGMPFRNLKLILQGCSSSCSETENNKCCSTDRCNK; UniProt P0DKR6 22-78, looked up)", "values": [
      {"measurement": "effect on ASIC1a gating state", "setting": "ASIC1a", "result": "stabilize the closed channels state"}
    ]}
  ]
}
